{
  "source": "paper PMC11970527",
  "about": "(RSC Chemical Biology, 2025)",
  "key": {"[1]": {"details": "pH 7.4; cited from earlier work"}, "[2]": {"experiment": "Precipitation Assay with CaCl2", "format": "physicochemical", "details": "4 mM ligand, pH 7.4, 100 mM tris"}, "AvrA [3]": {"molecular_target": "T1, AvrA (Salmonella enterica subsp. enterica serovar Typhimurium, UniProt E8XKZ3)", "T1 sequence (E8XKZ3 1-301)": "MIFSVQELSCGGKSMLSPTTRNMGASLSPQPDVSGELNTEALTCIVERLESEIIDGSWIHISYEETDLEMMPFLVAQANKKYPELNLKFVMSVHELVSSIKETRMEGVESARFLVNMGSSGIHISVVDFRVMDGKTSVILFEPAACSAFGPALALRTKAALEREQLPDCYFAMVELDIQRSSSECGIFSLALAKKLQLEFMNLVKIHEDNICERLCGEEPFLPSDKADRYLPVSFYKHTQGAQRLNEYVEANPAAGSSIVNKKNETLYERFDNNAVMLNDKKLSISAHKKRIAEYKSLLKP", "details": "read-out: Kd previously described; cited from earlier work"}, "VopA": {"test_system": "VopA", "experiment": "differential scanning fluorimetry", "format": "binding, Vibrio parahaemolyticus", "details": "DSF, nonlinear curve fit, n = 5"}, "TcdB CPD": {"molecular_target": "TcdB CPD (Clostridioides difficile, UniProt P18177)", "sequence (P18177 543-799 limits assumed)": "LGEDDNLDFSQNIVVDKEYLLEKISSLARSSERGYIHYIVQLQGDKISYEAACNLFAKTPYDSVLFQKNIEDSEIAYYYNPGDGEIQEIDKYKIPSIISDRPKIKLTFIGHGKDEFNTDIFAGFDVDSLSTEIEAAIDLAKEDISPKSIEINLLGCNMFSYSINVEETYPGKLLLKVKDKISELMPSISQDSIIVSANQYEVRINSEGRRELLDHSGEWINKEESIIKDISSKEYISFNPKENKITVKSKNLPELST", "experiment": "isothermal calorimetry", "format": "binding"}, "phytase-4": {"test_system": "phytase-4", "experiment": "stability against phytase-4 by 31P NMR", "format": "in vitro ADME, wheat", "details": "4 mM ligand, over 32 h, 100 mM acetate buffer pH 5"}, "AvrA [4]": {"molecular_target": "T1, AvrA", "experiment": "isothermal calorimetry", "format": "binding"}},
  "note": "Read-outs that look alike come from different tables or passages of the source.",
  "data": [
    {"compound": "O=P(O)(O)O[C@H]1[C@H](OP(=O)(O)O)[C@@H](OP(=O)(O)O)[C@H](OP(=O)(O)O)[C@@H](OP(=O)(O)O)[C@H]1OP(=O)(O)O", "note": "[IP6, myo-inositol hexakisphosphate]", "values": [
      {"measurement": "net charge", "setting": "[1]", "value": "−8"},
      {"measurement": "CaCl2 concentration that induces precipitation (X0)", "setting": "[2]", "value": 4, "unit": "mM"},
      {"measurement": "Kd", "setting": "AvrA [3]", "value": 5180, "unit": "nM"},
      {"measurement": "Maximal ΔTM", "setting": "VopA", "value": 12.4, "unit": "°C"},
      {"measurement": "Kd", "setting": "TcdB CPD", "value": 1920, "unit": "nM"},
      {"measurement": "koff", "setting": "TcdB CPD", "value": 0.0409, "unit": "s⁻¹"},
      {"measurement": "ΔH", "setting": "TcdB CPD; TcdB CPD, ITC, 20 °C, mean (SD)", "value": "−22.94 (0.05) kcal mol^−1"},
      {"measurement": "stability in the presence of phytase-4", "setting": "phytase-4", "value": "hydrolysed within the first hour"},
      {"measurement": "koff", "setting": "AvrA [4]", "value": 0.00171, "unit": "s⁻¹"},
      {"measurement": "ΔH", "setting": "AvrA [4]; AvrA, ITC, 20 °C, mean (SD)", "value": "−21.09 (0.12) kcal mol^−1"},
      {"measurement": "Kd", "setting": "AvrA [4]; K d, AvrA, ITC, 20 °C, mean (SD)", "value": 139, "unit": "nM"}
    ]}
  ]
}
